Legend:
[1] = eight-week course, randomized patients; cited from earlier work
[2] = Stuttering of a patient treated with pagoclone in a double-blind placebo-controlled panic disorder clinical trial; type: in vivo, human
Method: A patient is enrolled in a clinical trial examining the efficacy and safety of pagoclone, a drug which works at the GABAA receptor, in the treatment of panic disorder, an anxiety disorder. […] The double-blind placebo-controlled trial conceals the drug type until the conclusion of the trial. During the trial the patient is taking 0.60 mg pagoclone/day (0.20 mg t.i.d.). The patient had never before experienced this sort of an effect on their stuttering and they had taken, in the past, other anti-anxiety medications for their psychiatric condition, none of which had such an effect on their stuttering. During the trial, both they and the clinician treating them in the clinical trial notice the reduction in their stuttering, which is documented at their week 2 visit. […] During the trial they also are taking ibuprofen and a prophylactic for urinary tract infections.

[3] = Elliot et al. 1985; cited from earlier work

O=C(CCCN1CCC(O)(c2ccc(Cl)cc2)CC1)c1ccc(F)cc1 [haloperidol]
effect on stuttering, objective measures of speech [1]: significant improvement

CC(C)CCC(=O)CC1c2ccccc2C(=O)N1c1ccc2ccc(Cl)nc2n1 (single isomer, unassigned; (+)) [pagoclone, (+)2-(7-chloro-1,8-naphthyridine-2-yl)-3-(5-methyl-2-oxo-hexyl)-1-isoindolinone]
effect on stuttering while taking the drug ([2]; patient, fairly severe stuttering, 0.60 mg pagoclone/day (0.20 mg t.i.d.), documented at week 2 visit): significant reduction in their fairly severe stuttering problem
effect on anxiety and psychiatric condition ([2]; same patient with panic disorder, 0.60 mg pagoclone/day): reduction in their anxiety and improvement in their psychiatric condition
stuttering after stopping the drug ([2]; same patient, after stopping pagoclone): returns to the pre-drug level within a day

Cc1nnc2n1-c1ccc(Cl)cc1C(c1ccccc1)=NC2 [Alprazolam]
drug-induced stuttering [3]: can induce stuttering
